Like-named read-outs stand apart in the source and are kept apart here. Marks after values point to notes of the source that are not given here.
Legend:
H9 line = assay: Inhibition of tumor cell proliferation; format: cell-based; conditions: H9 line (FIG. 9d)
Text: (§1) After 5 days, the proliferation of the cells is estimated by tritiated (3H) thymidine incorporation. Other tumor lines were used, namely the H9 line (T lymphoma), the NB4 line (line derived from an acute promyelocytic leukemia) and the Jurkat line (T-lymphoma-derived lymphoblastic T cell line).

Jurkat line = assay: Inhibition of tumor cell proliferation; format: cell-based; conditions: Jurkat line (FIG. 9b)
Text: as §1

NB4 line = assay: Inhibition of tumor cell proliferation; format: cell-based; conditions: NB4 line (FIG. 9c)
Text: as §1

HIV-1 proviral DNA = assay: Proviral DNA, modified Muprovama test; conditions: for Log of proviral HIV DNA: riluzole 0.1 μM (+), mean ± S.D.; for Proviral DNA Number of copies/10^6 cells: after 6 days (day 12-18)
FAS (CD95/APO-1) = assay: Apoptosis induced by the anti-FAS antibody (annexin V expression); format: cell-based, human; conditions: lymphocytes of patient two
Protocol: The apoptotic cells were measured using propidium iodide and FITC-labeled annexin V, which is a phospholipid-binding protein that binds preferentially to the phosphatidylserine exposed at the surface of the cells in the initial phase of apoptosis, by means of a commercially available kit (Immunotech, Marseille, France). The cells that were propidium-iodide-negative and annexin-V-positive were identified as being apoptotic cells, whereas those that were positive for both propidium iodide and annexin V were considered to be pre-necrotic cells. The apoptosis caused by the anti-FAS monoclonal antibody (CD95/APO-1) (Immunotech, Marseille, France) was thus measured since it is well known that Fas/Fas ligand apoptosis is amplified in AIDS disease.
Counting of T cells having CD4+ and CD8+ phenotypes, of the Ki-67 activation marker and of annexin V was carried out by flow cytometry analysis (FACScan, Becton Dickenson, San José, Calif., USA). A series of monoclonal antibodies directed against the following surface markers of T cells was used: CD4-PerCP, CD8-PE (Becton Dickinson, France), Ki-67-FITC (Pharmingen, Los Angeles, Calif., USA), Annexin-FITC (Immunotech, Marseille, France).
As indicated above, it is well established that the lymphocytes of HIV-1-infected patients are sensitive to apoptosis induced by the expression of FAS (CD95/APO-1) and of its agonist, the anti-FAS antibody.

Ki-67 antigen = assay: Expression of the Ki-67 antigen (flow cytometry); format: cell-based, human
[1] = test system: TG 180 line (Crocker sarcoma tumor); assay: Inhibition of tumor cell proliferation (3H thymidine incorporation); format: cell-based; conditions: 120 h, 5 days (FIG. 9a)
Text: as §1

[2] = test system: lymphocytes of a patient suffering from AIDS; assay: Apoptosis test (annexin V / propidium iodide, flow cytometry); format: cell-based, human; conditions: after 13 days; 10^-7-10^-8 M
Protocol: The apoptotic cells were measured using propidium iodide and FITC-labeled annexin V, which is a phospholipid-binding protein that binds preferentially to the phosphatidylserine exposed at the surface of the cells in the initial phase of apoptosis, by means of a commercially available kit (Immunotech, Marseille, France). The cells that were propidium-iodide-negative and annexin-V-positive were identified as being apoptotic cells, whereas those that were positive for both propidium iodide and annexin V were considered to be pre-necrotic cells. […] Counting of T cells having CD4+ and CD8+ phenotypes, of the Ki-67 activation marker and of annexin V was carried out by flow cytometry analysis (FACScan, Becton Dickenson, San José, Calif., USA). A series of monoclonal antibodies directed against the following surface markers of T cells was used: CD4-PerCP, CD8-PE (Becton Dickinson, France), Ki-67-FITC (Pharmingen, Los Angeles, Calif., USA), Annexin-FITC (Immunotech, Marseille, France).

interferon-β gene = assay: Detection of cytokines by real-time PCR; format: cell-based; conditions: real-time PCR (FIG. 8)
Protocol: (§2) Using real-time PCR, 2 μg of total RNA is first reverse-transcribed by means of a kit (High Capacity cDNA Archive kit PN: 4322171, Applied Biosystems, Foster City, Calif.) using random primers and the MultiScribe RT enzyme (5 U/μl) for 2 hours at 37° C. The method of labeling with a SYBR Green, a fluorescent molecule which intercalates into the minor groove of the double helix, was used. The reaction is carried out using a thermocycler (ABI prism 7900 HT, Applied Biosystems, Foster City, Calif.). Each point studied was composed of 5 μl of SYBR Green PCR Master Mix (PN:4344463; Applied Biosystems, Foster City, Calif.), 0.3 μl of sense and antisense primer at a concentration of 10 μM (Proligo), 3.4 μl of Rnase-free water and 1 μl of cDNA. After a denaturation step at 95° C. for 15 min, the amplification is carried out after 40 cycles at 95° C. for 15 s, 60° C. for 30 s and 72° C. for 30 s. At the end of the PCR, a dissociation step corresponding to the amplification peak, which takes place in a cycle of 95° C. for 15 s, 60° C. for 15 s and 95° C. for 15 s, verifies the validity of the primers. The primers for all the genes studied were chosen according to the Oligo Explorer 1.1 amplification conditions. The samples were studied in duplicate in the presence of a negative control, composed of Master Mix and the primers, but without the cDNA. Glyceraldehyde phosphate dehydrogenase (GAPDH) was used as endogenous control gene.
(§3) The effect of the treatments on the levels of mRNA of interest is studied using the method of comparison of CTs (Peinnequin et al., 2004) or number of cycles necessary to reach a threshold fluorescence value (software SDS 2.1, AB prism).
(§4) The sequences of the primers used are the following (Proligo LLC, Boulder, Colo., USA) (forward-reverse): […]

Toll receptor 3 gene = assay: Detection of cytokines by real-time PCR; format: cell-based; conditions: real-time PCR (FIG. 8)
Protocol: as §2, §3, §4

interferon-α gene = assay: Detection of cytokines by real-time PCR; format: cell-based; conditions: real-time PCR (FIG. 8)
Protocol: as §2, §3, §4

IL-15 gene = assay: Detection of cytokines by real-time PCR; format: cell-based; conditions: real-time PCR (FIG. 8)
Protocol: as §2, §3, §4

IL-15 = assay: Measurement of interleukin-15 production (ELISA of supernatant); format: cell-based; conditions: riluzole 10^-8 M, culture supernatant, without riluzole 1
HIV-1 = conditions: for viral RNA expressed, more than the control: patient two, no therapy; for Viral RNA Number of copies/ml: after 6 days (day 12-18)
[3] = test system: lymphocytes of patients suffering from AIDS; format: cell-based, human; conditions: for Cell survival rate (×100%): day 18 vs day 12
[4] = test system: lymphocytes of patients suffering from AIDS; format: cell-based, human; conditions: after 6 days (day 12-18)

## Nc1nc2ccc(OC(F)(F)F)cc2s1 [riluzole, 6-(trifluoromethoxy)-2-aminobenzothiazole]
H9 line
  inhibition of the proliferation of tumor cells: inhibition of the proliferation of these tumor cells is also observed
Jurkat line
  inhibition of the proliferation of tumor cells: inhibition of the proliferation of these tumor cells is also observed
NB4 line
  inhibition of the proliferation of tumor cells: inhibition of the proliferation of these tumor cells is also observed
HIV-1 proviral DNA; TT(+), V: 44.000, Day 3 of culture
  Log of proviral HIV DNA: 2 ± 0.3 Log copies [cp]/10^6 cells
HIV-1 proviral DNA; TT(+), V: 44.000, Day 6 of culture
  Log of proviral HIV DNA: 0.3 ± 0.1 Log copies [cp]/10^6 cells
HIV-1 proviral DNA; TT(+), V: 250, Day 3 of culture
  Log of proviral HIV DNA: 3 ± 0.2 Log copies [cp]/10^6 cells
HIV-1 proviral DNA; TT(+), V: 250, Day 6 of culture
  Log of proviral HIV DNA: 0.2 ± 0.1 Log copies [cp]/10^6 cells
HIV-1 proviral DNA; TT(−), V: 68.000, Day 3 of culture
  Log of proviral HIV DNA: 3.7 ± 0.2 Log copies [cp]/10^6 cells
HIV-1 proviral DNA; TT(−), V: 68.000, Day 6 of culture
  Log of proviral HIV DNA: 0.7 ± 0.1 Log copies [cp]/10^6 cells
FAS (CD95/APO-1); Homo sapiens, Lymphocyte, 10^-8 M
  inhibition at 0.01 µM: 62%
FAS (CD95/APO-1); 10^-8 M, control 50%
  apoptosis (annexin V expression) of cells coupled to anti-FAS antibody: 15%
FAS (CD95/APO-1); compared with the 62% inhibition with antibody
  percentage inhibition of apoptosis, cells cultured without anti-FAS antibody: comparable
Ki-67 antigen; after 13 days in the presence of riluzole (FIG. 6A)
  inhibition of Ki-67 antigen expression by all of the lymphocytes: ~33%
Ki-67 antigen; after 13 days in the presence of riluzole (FIG. 6B)
  inhibition of Ki-67 antigen expression by the CD8 lymphocytes: ~37%
Ki-67 antigen; after 13 days in the presence of riluzole (FIG. 6C)
  inhibition of Ki-67 antigen expression by the CD4 lymphocytes: ~50%
[1]; 10^-4 M
  inhibition at 100 µM: 86%
[1]; 10^-5 M (first mention)
  inhibition at 10 µM: 40%
[1]; 10^-5 M (second mention)
  inhibition at 10 µM: 30%
[2]
  inhibition of apoptosis of CD4 lymphocytes: 80%
  inhibition of apoptosis of CD8 lymphocytes: 70%
  inhibition of total apoptosis expressed by all the lymphocytes: 66%
interferon-β gene
  expression of the interferon-β gene: capable of inducing the expression
Toll receptor 3 gene
  expression of the Toll receptor 3 gene: capable of inducing the expression
interferon-α gene
  expression of the interferon-α gene: capable of inducing the expression
IL-15 gene
  expression of the IL-15 gene: capable of inducing the expression
IL-15
  production of IL-15: 6 pg/mL
IL-15; listed as Riluzole
  production of IL-15: 15* pg/ml
HIV-1; patient one, 10^-7 M, days 3 and 6 of culture
  virus measurement versus control: virtually the same
HIV-1; patient one, 10^-7 M, days 10 and 13 (FIG. 1C)
  HIV-1 RNA of conditioned cultures versus controls: twice as high
HIV-1; day 13 (FIG. 3C)
  viral RNA expressed, more than the control: up to 0.7 log10
HIV-1; from the 6th day, doses 10^-8 M, 10^-7 M and 10^-8 M as printed
  viral RNA expressed, more than the control: 0.8 logn
HIV-1; untreated patient one, 10^-7 M, day 13 of culture
  HIV-1 RNA in culture supernatants, increase: 100%

## Cc1cn([C@H]2C[C@H](N=[N+]=[N-])[C@@H](CO)O2)c(=O)[nH]c1=O [AZT]
[3]; AZT 10 μg/ml
  effect on proliferation of the control cells: suppressor (antiproliferative) effect
[3]; Individual AR, AZT 1 μg/ml
  Cell survival rate (×100%): 5 ×100%
[3]; Individual AR, AZT 10 μg/ml
  Cell survival rate (×100%): 4 ×100%
[3]; Individual PE, AZT 10 μg/ml
  Cell survival rate (×100%): 3 ×100%
[3]; Individual PR, AZT 1 μg/ml
  Cell survival rate (×100%): 12 ×100%
[3]; Individual PR, AZT 10 μg/ml
  Cell survival rate (×100%): 13 ×100%
[3]; Individual beta, AZT 1 μg/ml
  Cell survival rate (×100%): 3 ×100%
HIV-1 proviral DNA; Individual AR, AZT 1 μg/ml
  Proviral DNA Number of copies/10^6 cells: 6.1 Log copies/10^6 cells
HIV-1 proviral DNA; Individual AR, AZT 10 μg/ml
  Proviral DNA Number of copies/10^6 cells: 5.4 Log copies/10^6 cells
HIV-1 proviral DNA; Individual PR, AZT 1 μg/ml
  Proviral DNA Number of copies/10^6 cells: 4.9 Log copies/10^6 cells
HIV-1 proviral DNA; Individual PR, AZT 10 μg/ml
  Proviral DNA Number of copies/10^6 cells: 4.8 Log copies/10^6 cells
HIV-1; AZT 1 μg/ml
  antiviral effect on the control cells: partial, or even equivalent
HIV-1; AZT 10 μg/ml
  antiviral effect: exerts an antiviral effect
HIV-1; Individual AR, AZT 1 μg/ml
  Viral RNA Number of copies/ml: 35 000 copies/ml
HIV-1; Individual AR, AZT 10 μg/ml
  Viral RNA Number of copies/ml: <100 copies/ml
HIV-1; Individual PR, AZT 1 μg/ml
  Viral RNA Number of copies/ml: 7000 copies/ml
HIV-1; Individual PR, AZT 10 μg/ml
  Viral RNA Number of copies/ml: <100 copies/ml
[4]; Individual AR, AZT 1 μg/ml
  Viability % dead cells: 28%
[4]; Individual AR, AZT 10 μg/ml
  Viability % dead cells: 25%
[4]; Individual PR, AZT 1 μg/ml
  Viability % dead cells: 19%
[4]; Individual PR, AZT 10 μg/ml
  Viability % dead cells: 20%
[4]; Individual beta, AZT 1 μg/ml
  Viability % dead cells: 29%
[4]; Individual beta, AZT 10 μg/ml
  Viability % dead cells: 20%

— patent US20100093655A1 (priority 2007, published 2010)
